From PMC5218480 (PLoS ONE, 2017)

Test system: MV-4-11 cells
Assay: Gene expression microarray analysis (Affymetrix PrimeView) and GSEA
Format: cell-based, human
Set-up: RFU PODN (11730768_x_at) / Fold change /veh PODN (11730768_x_at) / RFU LINC00158 (11744669_a_at) / Fold change /veh LINC00158 (11744669_a_at) / RFU DUSP10 (11751237_a_at) / Fold change /veh DUSP10 (11751237_a_at) / RFU ID3 (11757404_x_at) / Fold change /veh ID3 (11757404_x_at) / RFU PLEKHG5 (11737974_s_at) / Fold change /veh PLEKHG5 (11737974_s_at) / RFU LRRC4B (11730491_at) / Fold change /veh LRRC4B (11730491_at) / RFU GIMAP4 (11747438_a_at) / Fold change /veh GIMAP4 (11747438_a_at) / RFU KRT8 (11758183_x_at) / Fold change /veh KRT8 (11758183_x_at) / RFU CNN1 (11734310_a_at) / Fold change /veh CNN1 (11734310_a_at) / RFU VPS37D (11726825_at) / Fold change /veh VPS37D (11726825_at) / RFU C10orf10 (11716522_x_at) / Fold change /veh C10orf10 (11716522_x_at) / RFU KIR2DL2 /// KIR2DL4 /// KIR2DL5A /// KIR2DL5B /// KIR2DS1 /// KIR2DS2 /// KIR2DS3 /// KIR2DS4 /// KIR3DL3 /// KIR3DL3 /// KIR3DS1 (11738374_at) / Fold change /veh KIR2DL2 /// KIR2DL4 /// KIR2DL5A /// KIR2DL5B /// KIR2DS1 /// KIR2DS2 /// KIR2DS3 /// KIR2DS4 /// KIR3DL3 /// KIR3DL3 /// KIR3DS1 (11738374_at) / RFU C1QL1 (11718748_at) / Fold change /veh C1QL1 (11718748_at) / RFU TMPRSS4 (11747572_a_at) / Fold change /veh TMPRSS4 (11747572_a_at) / RFU HAMP (11756126_x_at) / Fold change /veh HAMP (11756126_x_at) / RFU RNFT2 (11725882_a_at) / Fold change /veh RNFT2 (11725882_a_at) / RFU NR4A2 (11747474_a_at) / Fold change /veh NR4A2 (11747474_a_at) / RFU ABCC12 (11746883_a_at) / Fold change /veh ABCC12 (11746883_a_at) / RFU TMEM136 (11760407_x_at) / Fold change /veh TMEM136 (11760407_x_at) / RFU CLDN22 /// WWC2 (11732394_at) / Fold change /veh CLDN22 /// WWC2 (11732394_at) / RFU HLA-DPB1 (11760878_x_at) / Fold change /veh HLA-DPB1 (11760878_x_at) / RFU SPINT1 (11716480_a_at) / Fold change /veh SPINT1 (11716480_a_at) / RFU GAP43 (11754022_s_at) / Fold change /veh GAP43 (11754022_s_at) / RFU A4GNT (11735810_at) / Fold change /veh A4GNT (11735810_at) / RFU PRB3 (11715151_x_at) / Fold change /veh PRB3 (11715151_x_at) / RFU TUBB4B (11761932_at) / Fold change /veh TUBB4B (11761932_at) / RFU CAPN14 (11732068_a_at) / Fold change /veh CAPN14 (11732068_a_at) / RFU TMCC2 (11721928_a_at) / Fold change /veh TMCC2 (11721928_a_at) / RFU IRGQ (11745062_a_at) / Fold change /veh IRGQ (11745062_a_at) / RFU FAM174B (11720279_a_at) / Fold change /veh FAM174B (11720279_a_at) / RFU TMPRSS4 (11748680_a_at) / Fold change /veh TMPRSS4 (11748680_a_at) / RFU FAM212B (11763350_a_at) / Fold change /veh FAM212B (11763350_a_at) / RFU PLEKHG5 (11743358_a_at) / Fold change /veh PLEKHG5 (11743358_a_at) / RFU ZSCAN30 (11745921_a_at) / Fold change /veh ZSCAN30 (11745921_a_at) / RFU CMKLR1 (11741424_a_at) / Fold change /veh CMKLR1 (11741424_a_at) / RFU LOC101060620 /// MAPK8IP1 (11723275_at) / Fold change /veh LOC101060620 /// MAPK8IP1 (11723275_at) / RFU SPTSSB (11747773_x_at) / Fold change /veh SPTSSB (11747773_x_at) / RFU PRSS12 (11739890_at) / Fold change /veh PRSS12 (11739890_at) / RFU BIN1 (11741810_x_at) / Fold change /veh BIN1 (11741810_x_at) / RFU WNT11 (11732464_a_at) / Fold change /veh WNT11 (11732464_a_at) / RFU C10orf10 (11716521_a_at) / Fold change /veh C10orf10 (11716521_a_at) / RFU C5orf56 (11738089_at) / Fold change /veh C5orf56 (11738089_at) / RFU CYB561 (11721691_x_at) / Fold change /veh CYB561 (11721691_x_at) / RFU ANKRD19P (11752326_a_at) / Fold change /veh ANKRD19P (11752326_a_at) / RFU OR2T12 /// OR2T33 /// OR2T8 (11738714_s_at) / Fold change /veh OR2T12 /// OR2T33 /// OR2T8 (11738714_s_at) / RFU VCAN (11748164_a_at) / Fold change /veh VCAN (11748164_a_at) / RFU JSRP1 (11732532_at) / Fold change /veh JSRP1 (11732532_at) / RFU KRTAP10-11 (11738290_x_at) / Fold change /veh KRTAP10-11 (11738290_x_at) / RFU MYO3A (11730013_a_at) / Fold change /veh MYO3A (11730013_a_at) / RFU EBF3 (11725865_a_at) / Fold change /veh EBF3 (11725865_a_at) / RFU CAMK2N1 (11719241_x_at) / Fold change /veh CAMK2N1 (11719241_x_at) / RFU C5orf56 (11738088_a_at) / Fold change /veh C5orf56 (11738088_a_at) / RFU OLFML3 (11715873_a_at) / Fold change /veh OLFML3 (11715873_a_at) / RFU LOC100653217 /// NTM (11731650_a_at) / Fold change /veh LOC100653217 /// NTM (11731650_a_at) / RFU MAPK11 (11762145_a_at) / Fold change /veh MAPK11 (11762145_a_at) / RFU FIZ1 (11724087_x_at) / Fold change /veh FIZ1 (11724087_x_at) / RFU OASL (11726364_x_at) / Fold change /veh OASL (11726364_x_at) / RFU SOX15 (11748057_x_at) / Fold change /veh SOX15 (11748057_x_at) / RFU CD79A (11719716_a_at) / Fold change /veh CD79A (11719716_a_at) / RFU HIST1H1D (11736915_at) / Fold change /veh HIST1H1D (11736915_at) / RFU CASKIN2 (11723855_a_at) / Fold change /veh CASKIN2 (11723855_a_at) / RFU LOC730098 (11760151_x_at) / Fold change /veh LOC730098 (11760151_x_at) / RFU OR4N2 (11742367_at) / Fold change /veh OR4N2 (11742367_at) / RFU PRRT2 (11749266_a_at) / Fold change /veh PRRT2 (11749266_a_at) / RFU SNX32 (11753110_a_at) / Fold change /veh SNX32 (11753110_a_at) / RFU CDHR5 (11726645_a_at) / Fold change /veh CDHR5 (11726645_a_at) / RFU RCAN1 (11760418_a_at) / Fold change /veh RCAN1 (11760418_a_at) / RFU FAM167A (11723789_a_at) / Fold change /veh FAM167A (11723789_a_at) / RFU FAM26E (11764081_at) / Fold change /veh FAM26E (11764081_at) / RFU ISYNA1 (11749810_s_at) / Fold change /veh ISYNA1 (11749810_s_at) / RFU ACY1 (11761880_at) / Fold change /veh ACY1 (11761880_at) / RFU 11764098_at / Fold change /veh 11764098_at / RFU SAMD14 (11745864_x_at) / Fold change /veh SAMD14 (11745864_x_at) / RFU NPB (11741838_a_at) / Fold change /veh NPB (11741838_a_at) / RFU TMPRSS6 (11731388_a_at) / Fold change /veh TMPRSS6 (11731388_a_at) / RFU KRTAP10-2 (11738614_at) / Fold change /veh KRTAP10-2 (11738614_at) / RFU ARHGAP8 /// PRR5-ARHGAP8 (11727945_x_at) / Fold change /veh ARHGAP8 /// PRR5-ARHGAP8 (11727945_x_at) / RFU KRTAP5-7 /// NADSYN1 (11734609_at) / Fold change /veh KRTAP5-7 /// NADSYN1 (11734609_at) / RFU RASL12 (11751679_a_at) / Fold change /veh RASL12 (11751679_a_at) / RFU CDKN2B (11736163_a_at) / Fold change /veh CDKN2B (11736163_a_at) / RFU PRF1 (11729649_at) / Fold change /veh PRF1 (11729649_at) / RFU, ZNF638 /// ZNF638-IT1 / Fold change vs veh, ZNF638 /// ZNF638-IT1 / RFU, PANK3 / Fold change vs veh, PANK3 / RFU, SH3YL1 / Fold change vs veh, SH3YL1 / RFU, ZEB2 / Fold change vs veh, ZEB2 / RFU, NRIP1 / Fold change vs veh, NRIP1 / RFU, PTTG1IP / Fold change vs veh, PTTG1IP / RFU, CAPN2 / Fold change vs veh, CAPN2 / RFU, MED14 / Fold change vs veh, MED14 / RFU, SNORA58 / Fold change vs veh, SNORA58 / RFU, C1orf63 / Fold change vs veh, C1orf63 / RFU, LRRFIP1 / Fold change vs veh, LRRFIP1 / RFU, NDUFAF7 / Fold change vs veh, NDUFAF7 / RFU, SLC12A2 / Fold change vs veh, SLC12A2 / RFU, IBTK / Fold change vs veh, IBTK / RFU, ESF1 / Fold change vs veh, ESF1 / Fold change vs veh, TMEM50B / RFU, TAOK1 / Fold change vs veh, TAOK1 / RFU, ACBD3 / Fold change vs veh, ACBD3 / RFU, TMA16 / Fold change vs veh, TMA16 / RFU, RWDD3 / Fold change vs veh, RWDD3 / RFU, BCAT1 / Fold change vs veh, BCAT1 / RFU, EDEM3 / Fold change vs veh, EDEM3 / RFU, TMEM33 / Fold change vs veh, TMEM33 / RFU, WDR75 / Fold change vs veh, WDR75 / RFU, AHCTF1 / Fold change vs veh, AHCTF1 / RFU, TFRC / Fold change vs veh, TFRC / RFU, ZDHHC17 / Fold change vs veh, ZDHHC17 / RFU, NOM1 / Fold change vs veh, NOM1 / RFU, ARL8B / Fold change vs veh, ARL8B / RFU, ZBTB11 / Fold change vs veh, ZBTB11 / RFU, TAMM41 / Fold change vs veh, TAMM41 / RFU, KIAA1704 /// LOC100996395 / Fold change vs veh, KIAA1704 /// LOC100996395 / RFU, ING1 / Fold change vs veh, ING1 / RFU, TRMT61B / Fold change vs veh, TRMT61B / RFU, FUBP3 / Fold change vs veh, FUBP3 / RFU, TP53 / Fold change vs veh, TP53 / RFU, TNKS2 / Fold change vs veh, TNKS2 / RFU, ZFP14 / Fold change vs veh, ZFP14 / RFU, ACTR2 / Fold change vs veh, ACTR2 / RFU, PPP3R1 / Fold change vs veh, PPP3R1 / RFU, PIK3R1 / Fold change vs veh, PIK3R1 / RFU, HNRNPA1 / Fold change vs veh, HNRNPA1 / RFU, RNF170 / Fold change vs veh, RNF170 / RFU, ZNF28 / Fold change vs veh, ZNF28 / RFU, RNGTT / Fold change vs veh, RNGTT / RFU, OGT / Fold change vs veh, OGT / RFU, BRD1 / Fold change vs veh, BRD1 / RFU, MARS / Fold change vs veh, MARS / RFU, ZNF655 / Fold change vs veh, ZNF655 / RFU, FAHD1 / Fold change vs veh, FAHD1 / RFU, BDP1 / Fold change vs veh, BDP1 / RFU, LRRCC1 / Fold change vs veh, LRRCC1 / RFU, ARID1A / Fold change vs veh, ARID1A / RFU, ZNF146 / Fold change vs veh, ZNF146 / RFU, ZNF330 / Fold change vs veh, ZNF330 / RFU, GPN3 / Fold change vs veh, GPN3 / RFU, C9orf123 / Fold change vs veh, C9orf123 / RFU, N4BP2L2 / Fold change vs veh, N4BP2L2 / RFU, ARFIP1 / Fold change vs veh, ARFIP1 / RFU, FAM179B / Fold change vs veh, FAM179B / RFU, BCL10 / Fold change vs veh, BCL10 / RFU, UHRF1BP1L / Fold change vs veh, UHRF1BP1L / RFU, BET1 / Fold change vs veh, BET1 / RFU, CNOT2 / Fold change vs veh, CNOT2 / RFU, ZNF268 / Fold change vs veh, ZNF268 / Fold change vs veh, ZNF507 / RFU, DGCR2 / Fold change vs veh, DGCR2 / RFU, WDSUB1 / Fold change vs veh, WDSUB1 / Fold change vs veh, HSP90B1 /// MIR3652 / RFU, ADSS / Fold change vs veh, ADSS / RFU, GK / Fold change vs veh, GK / RFU, ZNF148 / Fold change vs veh, ZNF148 / RFU, TAF9 / Fold change vs veh, TAF9 / RFU, SLC1A5 / Fold change vs veh, SLC1A5 / RFU, SLMO2 / Fold change vs veh, SLMO2 / RFU, ABCC4 / Fold change vs veh, ABCC4 / RFU, LOC101060439 /// RAP1B / Fold change vs veh, LOC101060439 /// RAP1B / RFU, RFX7 / Fold change vs veh, RFX7 / RFU, GTPBP10 / Fold change vs veh, GTPBP10 / RFU, CNEP1R1 / Fold change vs veh, CNEP1R1 / RFU, BIVM-ERCC5 /// ERCC5 / Fold change vs veh, BIVM-ERCC5 /// ERCC5 / RFU, ILF3 / Fold change vs veh, ILF3 / RFU 11762660_at / Fold change /veh 11762660_at / RFU VCAN (11757783_s_at) / Fold change /veh VCAN (11757783_s_at) / RFU DDX43 (11728927_at) / Fold change /veh DDX43 (11728927_at) / RFU KRT8 (11758188_x_at) / Fold change /veh KRT8 (11758188_x_at) / RFU NKD1 (11759106_at) / Fold change /veh NKD1 (11759106_at) / RFU SRD5A1 (11742802_a_at) / Fold change /veh SRD5A1 (11742802_a_at) / RFU TPSAB1 /// TPSB2 (11721975_s_at) / Fold change /veh TPSAB1 /// TPSB2 (11721975_s_at) / RFU GSTM3 (11746129_a_at) / Fold change /veh GSTM3 (11746129_a_at) / RFU IL23R (11737362_x_at) / Fold change /veh IL23R (11737362_x_at) / RFU TMEM51 (11727254_a_at) / Fold change /veh TMEM51 (11727254_a_at) / RFU PIWIL2 (11732686_x_at) / Fold change /veh PIWIL2 (11732686_x_at) / RFU ORM1 (11744905_x_at) / Fold change /veh ORM1 (11744905_x_at) / RFU CCDC152 (11743942_at) / Fold change /veh CCDC152 (11743942_at) / RFU ECM1 (11717891_a_at) / Fold change /veh ECM1 (11717891_a_at) / RFU IL23R (11748794_a_at) / Fold change /veh IL23R (11748794_a_at) / RFU TNFAIP8L3 (11732012_x_at) / Fold change /veh TNFAIP8L3 (11732012_x_at) / RFU MBOAT4 (11741988_at) / Fold change /veh MBOAT4 (11741988_at) / RFU 11764193_at / Fold change /veh 11764193_at / RFU TMEM53 (11763286_at) / Fold change /veh TMEM53 (11763286_at) / RFU MAGEB2 (11727129_at) / Fold change /veh MAGEB2 (11727129_at) / RFU TMEM200A (11744735_a_at) / Fold change /veh TMEM200A (11744735_a_at) / RFU CCDC152 (11751479_a_at) / Fold change /veh CCDC152 (11751479_a_at) / RFU FAM211A (11726209_a_at) / Fold change /veh FAM211A (11726209_a_at) / RFU RGS16 (11746705_a_at) / Fold change /veh RGS16 (11746705_a_at) / RFU VCAN (11755009_s_at) / Fold change /veh VCAN (11755009_s_at) / RFU RHOB (11743442_s_at) / Fold change /veh RHOB (11743442_s_at) / RFU RGS16 (11720943_a_at) / Fold change /veh RGS16 (11720943_a_at) / RFU RGS16 (11720944_at) / Fold change /veh RGS16 (11720944_at) / RFU, VPS4B / Fold change vs veh, VPS4B / RFU, CREB1 / Fold change vs veh, CREB1 / RFU, DNAJC13 / Fold change vs veh, DNAJC13 / RFU, GNAQ / Fold change vs veh, GNAQ / RFU, CDK5R1 / Fold change vs veh, CDK5R1 / RFU, ZRANB3 / Fold change vs veh, ZRANB3 / RFU, CUL4A / Fold change vs veh, CUL4A / RFU, CCNY / Fold change vs veh, CCNY / RFU, UFL1 / Fold change vs veh, UFL1 / RFU, COG3 / Fold change vs veh, COG3 / RFU, DIAPH2 / Fold change vs veh, DIAPH2 / RFU, SKA2 / Fold change vs veh, SKA2 / RFU, AFF3 / Fold change vs veh, AFF3 / RFU, LMF1 / Fold change vs veh, LMF1 / RFU, IPO11 / Fold change vs veh, IPO11 / RFU, DFFB / Fold change vs veh, DFFB / RFU, FOXP1 / Fold change vs veh, FOXP1 / RFU, CARD8 / Fold change vs veh, CARD8 / RFU, STRN3 / Fold change vs veh, STRN3 / RFU, ADK / Fold change vs veh, ADK / RFU, RASSF2 / Fold change vs veh, RASSF2 / RFU, WIPF1 / Fold change vs veh, WIPF1 / RFU, LARP1B / Fold change vs veh, LARP1B / RFU, RASA1 / Fold change vs veh, RASA1 / RFU, RB1 / Fold change vs veh, RB1 / RFU, PPFIA1 / Fold change vs veh, PPFIA1 / RFU, MAT2A / Fold change vs veh, MAT2A / RFU, CCT5 / Fold change vs veh, CCT5 / RFU, WDR92 / Fold change vs veh, WDR92 / RFU, CUX1 / Fold change vs veh, CUX1 / RFU, TTC7A / Fold change vs veh, TTC7A / RFU, TMEM135 / Fold change vs veh, TMEM135 / RFU, DEPTOR / Fold change vs veh, DEPTOR / RFU, CPM / Fold change vs veh, CPM / RFU, DNAJB6 / Fold change vs veh, DNAJB6 / RFU, CACNA2D3 / Fold change vs veh, CACNA2D3 / RFU, DTX4 / Fold change vs veh, DTX4 / RFU, TFCP2 / Fold change vs veh, TFCP2 / RFU, GMCL1 /// GMCL1P1 / Fold change vs veh, GMCL1 /// GMCL1P1 / RFU, AEBP2 / Fold change vs veh, AEBP2 / RFU, SNHG1 /// SNORD22 /// SNORD25 /// SNORD26 /// SNORD27 /// SNORD28 /// SNORD29 /// SNORD31 / Fold change vs veh, SNHG1 /// SNORD22 /// SNORD25 /// SNORD26 /// SNORD27 /// SNORD28 /// SNORD29 /// SNORD31 / Fold change (Aza/veh), C12orf56 (ProbeSet 11735607_a_at) / Fold change (ACY-1035/veh), C12orf56 (ProbeSet 11735607_a_at) / Fold change (Aza/veh), FGFR1OP (ProbeSet 11751329_s_at) / Fold change (ACY-1035/veh), FGFR1OP (ProbeSet 11751329_s_at) / Fold change (Aza/veh), VPS36 (ProbeSet 11739960_a_at) / Fold change (ACY-1035/veh), VPS36 (ProbeSet 11739960_a_at) / RFU SYPL1 (11715823_x_at) / Fold change /veh SYPL1 (11715823_x_at) / RFU IGFBP7 (11715501_s_at) / Fold change /veh IGFBP7 (11715501_s_at) / RFU REEP3 (11722064_at) / Fold change /veh REEP3 (11722064_at) / RFU IGLL1 (11728026_x_at) / Fold change /veh IGLL1 (11728026_x_at): dose or concentration left out as unconfirmed
Conditions: ProbeSet 11728676_at; LIST B

## Nc1ccc(-c2cccs2)cc1NC(=O)c1ccc2c(c1)cc(C1CC1)n2CCN1CCOCC1 [ACY-1035]
  Fold change vs veh, MED14: 0.95
